In the METLIN SMRT retention time set (Domingo-Almenara et al. 2019) one finds RP-LC retention time data, which are given here for 81 compounds.

A short description of the data set: gradient 5% acetonitrile 3 min, to 50% in 2 min, to 85% in 15 min, held 3 min, 100 µL/min. The settings on record: column: Zorbax Extend-C18 2.1 x 50 mm; eluents: water / acetonitrile, 0.1% formic acid. In outline:
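Using water and acetonitrile that each contained 0.1% formic acid, mixtures of ~100 pure standards were separated at 100 μL/min on a Zorbax Extend-C18 column (2.1 × 50 mm, 1.8 μm). The HPLC fed a quadrupole time-of-flight mass spectrometer working in positive and negative ionization mode, with dead and dwell volumes of 40 μL and 900 μL. Data were acquired over 3 months. Retention time was read from computationally picked adduct peaks after manual inspection of each.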
In turn, `CCC(=O)N(CC(=O)N1CCc2sccc2C1COc1ccccc1OC)C1CC1` (stereo unspecified) returned an RP-LC retention time of 871 s.

The compound `Cc1ccc(Nc2nc(C(=O)NCc3ccco3)nc3ccccc23)cc1` showed an RP-LC retention time of 779 s.

`CN1C(=O)C2CCCCN2c2ccc(C(=O)N3CCN(Cc4ccc5c(c4)OCO5)CC3)cc21` (stereo unspecified): the RP-LC retention time was determined as 638 s.

`CN(C)CCNC(=O)CN1C(=O)CN(C(=O)NCc2ccccc2)c2ccccc21` displayed an RP-LC retention time of 606 s.

With `COc1ccc(C2Cn3nnc(-c4nc(-c5cccc(Br)c5)no4)c3CO2)cc1` (stereo unspecified), the RP-LC retention time stood at 1170 s.

Take `O=C(c1cc(-c2cccnc2)n[nH]1)N1CCN(C(=O)C2CC2)CC1`: the RP-LC retention time stood at 565 s.

Compound `CCN1C(=O)CCc2cc(NC(=O)c3n[nH]c4ccccc34)ccc21` gave an RP-LC retention time of 761 s.

The compound `COc1ccc(NC(=O)CSc2nc(N3CCCCC3)nc3ccccc23)cc1` registered an RP-LC retention time of 695 s.

On to `CC(C)c1ccc(S(=O)(=O)c2cnc(N3CCN(C4CCCCC4)CC3)nc2N)cc1`, for which the RP-LC retention time was found to be 767 s.

In turn, `CCN(C(=O)Cn1c(C(C)NC(=O)c2ccco2)nc2ccccc21)c1ccccc1` (stereo unspecified) gave an RP-LC retention time of 704 s.

Take `Cc1c(O)ccc2c1oc(=O)c1ccccc12`: the RP-LC retention time came to 808 s.

As for `Cc1nn(C(C)C(=O)NCCCN(C)c2ccccc2)c(=O)c2c(C)n(-c3ccccc3)nc12` (stereo unspecified), the RP-LC retention time was determined as 655 s.

Turning to `CC(C)NC(=O)N1CCC(CCOc2ccccc2F)C1` (stereo unspecified), the RP-LC retention time amounted to 853 s.

The compound `COCCCNC(=O)COc1ccccc1-c1nnc(-c2ccccc2)o1` displayed an RP-LC retention time of 900 s.

In turn, `Cc1cc(C)n(Cc2nc(-c3ccc(NC(=O)C4CCCC4)cc3)oc2C)n1` returned an RP-LC retention time of 931 s.

`Cc1ccc(-c2cn3c(CC(=O)N4CCN(c5cc(Cl)ccc5C)CC4)csc3n2)cc1C` gave an RP-LC retention time of 1130 s.

`CCc1nnc2ccc(-c3noc(COc4ccc(Cl)cc4)n3)cn12` displayed an RP-LC retention time of 770 s.

Take `O=C(Cn1c(=O)sc2ccccc21)Nc1nc(-c2ccc(Br)cc2)cs1`: the RP-LC retention time turned out to be 1070 s.

Consider `CC(C)N1C(=O)C(C)(C(=O)NCc2ccccc2)Oc2cccnc21` (stereo unspecified), for which the RP-LC retention time is 912 s.

Turning to `CCn1nnc2c(N3CCN(CC(=O)NC4CCCC4)CC3)ncnc21`, the RP-LC retention time amounted to 550 s.

`COc1cc(-c2nc(-c3ccc4c(c3)oc(=O)n4C(C)C)no2)cc(OC)c1OC` gave an RP-LC retention time of 1110 s.

In the case of `COc1ccc(-c2ccc(=O)n(Cc3nc(-c4cccc(Br)c4)no3)n2)cc1`, the RP-LC retention time stood at 997 s.

The compound `Cc1cccc(S(=O)(=O)N2CCC(c3noc(-c4ccc(F)cc4)n3)CC2)c1` came in with an RP-LC retention time of 1180 s.

Regarding `COCCN1C(=O)CCc2cc(NS(=O)(=O)c3ccc(C)c(C)c3)ccc21`, the RP-LC retention time came out at 816 s.

The compound `COc1ccc(OC)c(NC(=O)N2CCc3nc[nH]c3C2)c1` returned an RP-LC retention time of 580 s.

`COc1ccc2nc(C(=O)NC(C)c3ccccc3)cn2n1` (stereo unspecified) gave an RP-LC retention time of 803 s.

Compound `O=C(C1=NNc2ccccc2S1(=O)=O)N1CCCCC1` showed an RP-LC retention time of 773 s.

Take `CS(=O)(=O)c1ccc(NC(=O)Cn2cnc3c(sc4nc(-c5ccccc5)ccc43)c2=O)cc1`: the RP-LC retention time was determined as 862 s.

`COc1ccc(OC)c(CNC(=O)c2cn3c(n2)COCC3)c1` displayed an RP-LC retention time of 639 s.

With `CC(C)(CO)NC(=O)Cc1ccc(NC(=O)CSc2ccc(F)cc2)cc1`, the RP-LC retention time was found to be 681 s.

On to `CC(C)(C)NC(=O)NCC1CC(=O)N(c2ccc(Cl)cc2)C1` (stereo unspecified), for which the RP-LC retention time is 706 s.

Compound `Cc1nc(CCNS(=O)(=O)c2ccc(Cl)c(C)c2)no1` returned an RP-LC retention time of 812 s.

As to `CC(C)n1ncc(NC(=O)Cc2ccc(Cl)cc2)c(N2CCOCC2)c1=O`, the RP-LC retention time came to 856 s.

`COc1ccc(-n2nnc(-c3nc(-c4cc(OC)ccc4OC)cs3)c2C)cc1` returned an RP-LC retention time of 1140 s.

As to `Cc1cccc(N2CCN(C(=O)C3=CCN(Cc4ccccc4)CC3)CC2)c1`, the RP-LC retention time is 681 s.

In turn, `CCOC(=O)c1nc(N(C)c2cccc(Cl)c2)c2ccccc2n1` displayed an RP-LC retention time of 982 s.

The compound `CCOCC(=O)N1CCCC1CCc1ncc(C)n1C(C)C` (stereo unspecified) displayed an RP-LC retention time of 574 s.

Regarding `O=C(CSc1nc(N2CCCCC2)nc2ccccc12)Nc1ccc2c(c1)OCCO2`, the RP-LC retention time was found to be 690 s.

Regarding `CCc1nc2cc3c(cc2n1CC(=O)Nc1ccc(C)cc1)OCCO3`, the RP-LC retention time came to 678 s.

`CSc1ccc(C2c3[nH]c4ccccc4c3CCN2C(=O)C2CC2)cc1` (stereo unspecified) displayed an RP-LC retention time of 1120 s.

In turn, `Cc1ccc2c(c1)N(S(C)(=O)=O)CCC(C(=O)Nc1ccc(Br)cc1F)O2` (stereo unspecified) returned an RP-LC retention time of 1030 s.

`O=C(NCc1nn(Cc2ccccc2)c2ccccc12)c1ccoc1` yielded an RP-LC retention time of 870 s.

For the compound `COCCn1cc(C(=O)N2CCc3ccccc32)c2nn(-c3ccccc3)c(=O)c-2c1`, the RP-LC retention time worked out at 789 s.

The compound `Cc1ccc(NC(=O)N2C[C@@H](F)C[C@H]2C(=O)N2CCc3ccccc3C2)c(Cl)c1` came in with an RP-LC retention time of 831 s.

In turn, `COCCN1C(=O)[C@H]2CN(Cc3cccnc3)C[C@H]2C1=O` had an RP-LC retention time of 528 s.

As to `O=C(Nc1nc2ccccc2s1)c1ccc([N+](=O)[O-])cc1Cl`, the RP-LC retention time is 877 s.

`CC(C)OCCCNC(=O)c1ccc2nc(Cc3ccccc3)oc2c1`: the RP-LC retention time is 884 s.

The compound `Fc1ccccc1-c1nnc2sc(-c3ccc4ccccc4n3)nn12` returned an RP-LC retention time of 1080 s.

Compound `O=C(CSCc1ccccc1)NCC1CCN(c2ncccn2)CC1` had an RP-LC retention time of 703 s.

Regarding `CCOc1cccc(-c2noc(Cn3c(=O)n(Cc4ccc(F)cc4)c(=O)c4sccc43)n2)c1`, the RP-LC retention time turned out to be 1210 s.

Regarding `COc1ccc(NC(=O)NCC2CCOCC2)c(C)c1`, the RP-LC retention time turned out to be 657 s.

Consider `COc1c2c(c(OC)c3c1c(=O)c1ccccc1n3C)OCO2`, for which the RP-LC retention time was 767 s.

Compound `CCOc1ccc(NC(=O)Cn2nc(N3CCCC3)c3ccccc3c2=O)cc1` displayed an RP-LC retention time of 809 s.

In turn, `CC(C)n1c(CCNC(=O)c2cccc(Cl)c2)nc2cccnc21` came in with an RP-LC retention time of 701 s.

On to `N#Cc1ccc(C(=O)NC2CCN(c3ccccc3)C2=O)cc1` (stereo unspecified), for which the RP-LC retention time was determined as 742 s.

`O=C(CSc1nc2ccccc2s1)OCc1cc(-c2ccco2)on1` showed an RP-LC retention time of 1010 s.

In turn, `COCCN1C(=O)CCc2cc(NS(=O)(=O)c3ccc4c(c3)CCC4)ccc21` came in with an RP-LC retention time of 854 s.

With `Cc1cc(C)n2nc(SCC(=O)NCCc3ccccc3)nc2n1`, the RP-LC retention time turned out to be 689 s.

In the case of `CCc1nn2c(CNC(=O)c3cccc(OC)c3)c(-c3ccccc3)nc2s1`, the RP-LC retention time turned out to be 885 s.

In turn, `CC1CCCN(CCCNC(=O)c2cc(S(=O)(=O)N3CCCCC3)ccc2Cl)C1` (stereo unspecified) had an RP-LC retention time of 661 s.

The compound `Cc1cc(C)cc(Oc2nccn3c(=O)n(CC(=O)Nc4cc(F)ccc4F)nc23)c1` registered an RP-LC retention time of 950 s.

In turn, `O=C(NC1CC1)[C@@H]1C[C@H](Oc2ccccc2)CN1C(=O)C1CCCC1` gave an RP-LC retention time of 750 s.

Turning to `COc1nc2ccccc2nc1N1CCCC(C(=O)Nc2ccc(Cl)cc2)C1` (stereo unspecified), the RP-LC retention time is 1240 s.

Compound `COc1cc(C(=O)Nc2nc(-c3ccc4c(c3)NC(=O)CO4)cs2)cc(OC)c1OC` gave an RP-LC retention time of 824 s.

`CC(C)c1nc(NCc2ccc3c(c2)OCO3)ncc1C(=O)O` displayed an RP-LC retention time of 844 s.

On to `Cc1cc(F)ccc1N1C(=O)CN(S(C)(=O)=O)CC1(C)C(=O)NCc1ccc(F)cc1` (stereo unspecified), for which the RP-LC retention time was 814 s.

Compound `CCc1nc(-c2csc(S(=O)(=O)N3CCCC(C(=O)Nc4ccc(C)cc4)C3)c2)no1` (stereo unspecified) gave an RP-LC retention time of 901 s.

`Cc1nc2cc(-c3noc(COc4ccc(Cl)cc4C)n3)ccc2o1` had an RP-LC retention time of 1180 s.

`COC(=O)c1ccc(C(=O)OC)c(=O)[nH]1` returned an RP-LC retention time of 638 s.

For the compound `CN(CC1CCOCC1)C(=O)Nc1ccc2c(c1)OCCO2`, the RP-LC retention time was 670 s.

Compound `COc1cc(=O)n2c(c1C(=O)Nc1ccc(Cl)c(Cl)c1)CCCC2` gave an RP-LC retention time of 823 s.

`CCCNc1nc(-c2ccc(Br)cc2)cs1` showed an RP-LC retention time of 1000 s.

`O=C(NCC(=O)N1CC2CN(S(=O)(=O)c3cccc(F)c3)CC(C1)O2)c1ccccc1` yielded an RP-LC retention time of 730 s.

`CCc1ccc(NC(=O)NCC(c2cccnc2)c2c[nH]c3ccccc23)cc1` (stereo unspecified) gave an RP-LC retention time of 710 s.

For the compound `O=C(Cn1nc(C(=O)N2CCCC2)c2ccccc21)N1CCN(C2CCCCC2)CC1`, the RP-LC retention time was determined as 597 s.

For the compound `Cn1nc2n(c1=O)CCN(C(=O)c1ccsc1)CC2`, the RP-LC retention time stood at 570 s.

`Cc1cc2nn(CC(=O)NCc3ccccc3)c(=O)n2c(-c2cccc(F)c2)n1` registered an RP-LC retention time of 627 s.

Compound `CCN(Cc1ccc(C)cc1)Cc1cc(=O)n2cc(Cl)ccc2n1` displayed an RP-LC retention time of 652 s.

The compound `Cc1ccc(C)c(S(=O)(=O)N2CCC(c3noc(COCC4CC4)n3)CC2)c1` had an RP-LC retention time of 1100 s.

With `COc1ccc(NC(=O)C2CCN(S(=O)(=O)c3cn(C(C)C)cn3)CC2)c(OC)c1`, the RP-LC retention time was 951 s.

`CCc1cccc(NC(=O)N2CCc3cn(CCOC)c4cccc(c34)C2)c1` had an RP-LC retention time of 1030 s.
